# US11786492B2, “Therapeutic agent for phosphodiesterase inhibition and its related disorders” (Novalead Pharma Inc, priority 2017, dated 2023)
# Read-outs that look alike come from different tables or passages of the source.
# Experiments:
# [1] = target: PDE1A (Homo sapiens, UniProt P54750); test: Fluorescence polarization assay PDE1A; format: biochemical; conditions: substrate cGMP, Ca-CaM
# Experimental: (§1) An experiment to check inhibition of various subtypes of the target Phosphodiesterase (PDE) enzyme in in-vitro assay was performed. […] PDE1A, PDE2A, PDE4A, PDE4B, PDE4C, PDE4D, PDE5A, PDE7A, PDE9A, PDE10A.
# [2] = tested on: Human IL-17A; test: IL-17A release from stimulated PBMCs, ELISA; format: cell-based; conditions: PMA+Ionomycin, 18 hrs
# Experimental: (§2) Fresh human blood from healthy volunteer was collected in anticoagulant (5 mM) ethylene diamine tetra acetic acid (EDTA) containing tubes. The growth medium used was RPMI-1640 medium (with 3% FBS) and incubated at 37° C. for 60 mins in a 5% CO2 incubator with vehicle used as 1% DMSO. The cell viability was checked at various time points using Alamar blue and fluorescence readings were taken at excitation of 544 nm and emission of 590 nm.
# (§3) PBMCs were stimulated with different stimulators as follows: • a. Cells were exposed to stimulator LPS at 100 ng/mL for 18 hrs to stimulate TNF-α, IL-6, IFN-γ, IL10, IL-1β • b. Cells were exposed to stimulator IFN-γ+LPS at 100 ng/mL+1 μg/mL for 18 hrs to stimulate IL-12 • c. Cells were exposed to stimulator PMA+Ionomycin at 50 ng/mL+1 μg/mL for 18 hrs to stimulate IL-23, IL-22, IL-17A, IL-17F
# (§4) After 18 hrs supernatants were collected and centrifuged to remove any cell debris and aliquots were used for ELISA.
# [3] = tested on: TNF-α; test: TNF-α release from stimulated HaCaT cells, ELISA; format: cell-based, human; conditions: IFN-γ 50 ng/mL, 48 hrs
# In short: (§5)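 HaCaT keratinocytes in DMEM/10% FBS at 37 °C, 5% CO2, vehicle 1% DMSO, stimulated with IFN-γ 50 ng/mL for 48 hrs to induce TNF-α and IL-6. Cleared supernatants analysed by ELISA; viability checked by Alamar blue (ex 544/em 590 nm).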
# [4] = tested on: HaCaT cells; test: Cell viability of HaCaT cells, Alamar blue; format: cell-based, human
# In short: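 HaCaT keratinocytes grown in DMEM with 10% FBS at 37° C, 5% CO2, with 1% DMSO as vehicle. Viability followed at several time points by Alamar blue fluorescence, excitation 544 nm, emission 590 nm.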
# [5] = target: PDE4B (Homo sapiens, UniProt Q07343); test: Fluorescence polarization assay PDE4B; format: biochemical; conditions: substrate cAMP
# PDE4B, sequence (Q07343 whole entry, species assumed): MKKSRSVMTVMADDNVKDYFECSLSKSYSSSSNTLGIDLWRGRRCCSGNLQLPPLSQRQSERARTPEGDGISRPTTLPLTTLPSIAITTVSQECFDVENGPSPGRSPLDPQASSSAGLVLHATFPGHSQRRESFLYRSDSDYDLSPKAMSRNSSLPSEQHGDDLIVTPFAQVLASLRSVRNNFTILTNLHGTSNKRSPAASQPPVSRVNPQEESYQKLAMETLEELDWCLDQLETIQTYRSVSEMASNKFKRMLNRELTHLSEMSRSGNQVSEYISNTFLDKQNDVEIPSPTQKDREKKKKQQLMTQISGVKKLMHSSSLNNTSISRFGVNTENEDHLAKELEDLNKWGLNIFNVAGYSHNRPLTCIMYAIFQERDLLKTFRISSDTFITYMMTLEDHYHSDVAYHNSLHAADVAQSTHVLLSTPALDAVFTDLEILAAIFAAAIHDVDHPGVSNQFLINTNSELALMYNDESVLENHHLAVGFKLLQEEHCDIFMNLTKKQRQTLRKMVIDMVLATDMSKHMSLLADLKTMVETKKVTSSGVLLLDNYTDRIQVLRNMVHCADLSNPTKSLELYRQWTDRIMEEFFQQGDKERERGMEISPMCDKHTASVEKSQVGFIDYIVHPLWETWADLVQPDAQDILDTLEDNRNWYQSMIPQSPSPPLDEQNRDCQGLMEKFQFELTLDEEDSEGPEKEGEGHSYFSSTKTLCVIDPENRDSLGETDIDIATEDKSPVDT
# Experimental: as §1
# [6] = tested on: Human IL-1β; test: IL-1β release from stimulated PBMCs, ELISA; format: cell-based; conditions: LPS 100 ng/mL, 18 hrs
# Experimental: as §2, §3, §4
# [7] = tested on: IL-6; test: IL-6 release from stimulated HaCaT cells, ELISA; format: cell-based, human; conditions: IFN-γ 50 ng/mL, 48 hrs
# In short: as §5
# [8] = tested on: Human IL-10; test: IL-10 release from stimulated PBMCs, ELISA; format: cell-based; conditions: LPS 100 ng/mL, 18 hrs
# Experimental: as §2, §3, §4
# [9] = tested on: Human IL-12; test: IL-12 release from stimulated PBMCs, ELISA; format: cell-based; conditions: IFN-γ+LPS, 18 hrs
# Experimental: as §2, §3, §4
# [10] = tested on: HaCaT cells; test: Keratinocyte (HaCaT) proliferation, MTT assay; format: cell-based, human; conditions: for IC50: Homo sapiens, HaCaT, read-out: IC50 of cell proliferation
# Experimental: An experiment to check keratinocyte proliferation inhibitory activity of selected compounds of Formula-I was performed to establish its application in skin disorders related to keratinocyte hyper-proliferation. HaCaT cells, a human immortalized cell line derived from keratinocytes, representing hyper-proliferating keratinocytes was investigated for anti-proliferative potential of the selected compounds by MTT assay.
# [11] = tested on: human PBMCs; test: Cell viability of human PBMCs, Alamar blue; format: cell-based
# Experimental: as §2
# [12] = tested on: Human IL-17F; test: IL-17F release from stimulated PBMCs, ELISA; format: cell-based; conditions: PMA+Ionomycin, 18 hrs
# Experimental: as §2, §3, §4
# [13] = tested on: Human IFN-γ; test: IFN-γ release from stimulated PBMCs, ELISA; format: cell-based; conditions: LPS 100 ng/mL, 18 hrs
# Experimental: as §2, §3, §4
# PDE1A, sequence (P54750 whole entry, species assumed): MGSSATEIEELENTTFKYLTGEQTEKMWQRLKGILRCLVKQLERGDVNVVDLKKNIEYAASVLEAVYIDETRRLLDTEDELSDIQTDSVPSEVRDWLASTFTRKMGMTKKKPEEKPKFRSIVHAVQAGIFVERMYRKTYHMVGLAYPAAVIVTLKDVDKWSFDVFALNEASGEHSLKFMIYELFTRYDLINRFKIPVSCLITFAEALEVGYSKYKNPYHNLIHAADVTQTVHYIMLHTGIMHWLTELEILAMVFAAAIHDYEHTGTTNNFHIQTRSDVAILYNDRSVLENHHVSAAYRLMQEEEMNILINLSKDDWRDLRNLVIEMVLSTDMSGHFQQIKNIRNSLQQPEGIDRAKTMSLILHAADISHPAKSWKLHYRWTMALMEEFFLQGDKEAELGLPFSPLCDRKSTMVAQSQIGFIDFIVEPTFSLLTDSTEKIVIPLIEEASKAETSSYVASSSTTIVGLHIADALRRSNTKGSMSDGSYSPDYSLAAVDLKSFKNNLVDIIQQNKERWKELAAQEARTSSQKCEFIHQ
smiles,measurement,setting,value
O=C(Nc1ncc([N+](=O)[O-])s1)c1ccccc1O [Tizoxanide],IC50,[1],96.1 µM
same,Human IL-17A concentration,[2]; 1 μM,39 pg/mL
same,Human IL-17A concentration,[2]; 10 μM,0 pg/mL
same,Human IL-17A concentration,[2]; 25 μM,0 pg/mL
same,Human IL-17A concentration,[2]; 50 μM,0 pg/mL
same,TNF-α Conc.,[3]; 0.1 μM,2.9 ± 0.2 pg/mL
same,TNF-α Conc.,[3]; 0.5 μM,3.2 ± 0.1 pg/mL
same,TNF-α Conc.,[3]; 1 μM,2.3 ± 0.5 pg/mL
same,% Viability (±S.E.M.),"[4]; 0.1 μM, 24 hrs",76 ± 6%
same,% Viability (±S.E.M.),"[4]; 0.1 μM, 48 hrs",114 ± 2%
same,% Viability (±S.E.M.),"[4]; 0.1 μM, 72 hrs",112 ± 6%
same,% Viability (±S.E.M.),"[4]; 1 μM, 24 hrs",74 ± 6%
same,% Viability (±S.E.M.),"[4]; 1 μM, 48 hrs",91 ± 5%
same,% Viability (±S.E.M.),"[4]; 1 μM, 72 hrs",91 ± 2%
same,% Viability (±S.E.M.),"[4]; 10 μM, 24 hrs",34 ± 1%
same,% Viability (±S.E.M.),"[4]; 10 μM, 48 hrs",35 ± 0%
same,% Viability (±S.E.M.),"[4]; 10 μM, 72 hrs",43 ± 1%
same,% Viability (±S.E.M.),"[4]; 50 μM, 24 hrs",24 ± 1%
same,% Viability (±S.E.M.),"[4]; 50 μM, 48 hrs",20 ± 0%
same,% Viability (±S.E.M.),"[4]; 50 μM, 72 hrs",25 ± 0%
same,% Viability (±S.E.M.),"[4]; 100 μM, 24 hrs",20 ± 0%
same,% Viability (±S.E.M.),"[4]; 100 μM, 48 hrs",13 ± 0%
same,% Viability (±S.E.M.),"[4]; 100 μM, 72 hrs",20 ± 0%
same,Concentration which exhibited cell viability of 70%,"[4]; HaCaT cells, maximum concentration for stimulation study",1 µM
same,IC50,[5],> 500 µM
same,Human IL-1β concentration,[6]; 1 μM,4577 pg/mL
same,Human IL-1β concentration,[6]; 10 μM,4118 pg/mL
same,Human IL-1β concentration,[6]; 25 μM,4168 pg/mL
same,Human IL-1β concentration,[6]; 50 μM,2522 pg/mL
same,IL-6 Conc.,[7]; 0.1 μM,87 ± 2 pg/mL
same,IL-6 Conc.,[7]; 0.5 μM,80 ± 2 pg/mL
same,IL-6 Conc.,[7]; 1 μM,78 ± 6 pg/mL
same,Human IL-10 concentration,[8]; 1 μM,1591 pg/mL
same,Human IL-10 concentration,[8]; 10 μM,493 pg/mL
same,Human IL-10 concentration,[8]; 25 μM,76 pg/mL
same,Human IL-10 concentration,[8]; 50 μM,42 pg/mL
same,Human IL-12 concentration,[9]; 1 μM,4715 pg/mL
same,Human IL-12 concentration,[9]; 10 μM,1401 pg/mL
same,Human IL-12 concentration,[9]; 25 μM,381 pg/mL
same,Human IL-12 concentration,[9]; 50 μM,101 pg/mL
same,Cell proliferation (% of Control),"[10]; 0.01 μM, 24 h",98.2 % of Control
same,Cell proliferation (% of Control),"[10]; 0.01 μM, 48 h",109.5 % of Control
same,Cell proliferation (% of Control),"[10]; 0.01 μM, 72 h",87.4 % of Control
same,Cell proliferation (% of Control),"[10]; 0.1 μM, 24 h",93.9 % of Control
same,Cell proliferation (% of Control),"[10]; 0.1 μM, 48 h",120.1 % of Control
same,Cell proliferation (% of Control),"[10]; 0.1 μM, 72 h",82.7 % of Control
same,Cell proliferation (% of Control),"[10]; 0.5 μM, 24 h",93.2 % of Control
same,Cell proliferation (% of Control),"[10]; 0.5 μM, 48 h",108.9 % of Control
same,Cell proliferation (% of Control),"[10]; 0.5 μM, 72 h",87.7 % of Control
same,Cell proliferation (% of Control),"[10]; 1 μM, 24 h",99.7 % of Control
same,Cell proliferation (% of Control),"[10]; 1 μM, 48 h",112.4 % of Control
same,Cell proliferation (% of Control),"[10]; 1 μM, 72 h",81 % of Control
same,Cell proliferation (% of Control),"[10]; 5 μM, 24 h",101.6 % of Control
same,Cell proliferation (% of Control),"[10]; 5 μM, 48 h",89.3 % of Control
same,Cell proliferation (% of Control),"[10]; 5 μM, 72 h",77.9 % of Control
same,Cell proliferation (% of Control),"[10]; 10 μM, 24 h",94.9 % of Control
same,Cell proliferation (% of Control),"[10]; 10 μM, 48 h",74.1 % of Control
same,Cell proliferation (% of Control),"[10]; 10 μM, 72 h",64.3 % of Control
same,Cell proliferation (% of Control),"[10]; 50 μM, 24 h",67.3 % of Control
same,Cell proliferation (% of Control),"[10]; 50 μM, 48 h",59.9 % of Control
same,Cell proliferation (% of Control),"[10]; 50 μM, 72 h",38 % of Control
same,Cell proliferation (% of Control),"[10]; 100 μM, 24 h",53.5 % of Control
same,Cell proliferation (% of Control),"[10]; 100 μM, 48 h",38.6 % of Control
same,Cell proliferation (% of Control),"[10]; 100 μM, 72 h",22.8 % of Control
same,IC50,[10]; 48 h,59.9 µM
same,IC50,[10]; 72 h,22.4 µM
same,% Viability (±S.E.M.),"[11]; 0.01 μM, 24 hrs",91 ± 3%
same,% Viability (±S.E.M.),"[11]; 0.01 μM, 48 hrs",96 ± 3%
same,% Viability (±S.E.M.),"[11]; 0.01 μM, 72 hrs",115 ± 1%
same,% Viability (±S.E.M.),"[11]; 1 μM, 24 hrs",84 ± 2%
same,% Viability (±S.E.M.),"[11]; 1 μM, 48 hrs",101 ± 4%
same,% Viability (±S.E.M.),"[11]; 1 μM, 72 hrs",102 ± 3%
same,% Viability (±S.E.M.),"[11]; 100 μM, 24 hrs",91 ± 5%
same,% Viability (±S.E.M.),"[11]; 100 μM, 48 hrs",64 ± 2%
same,% Viability (±S.E.M.),"[11]; 100 μM, 72 hrs",25 ± 2%
same,Concentration which exhibited cell viability of 70%,"[11]; PBMCs, maximum concentration for stimulation study",50 µM
same,Human IL-17F concentration,[12]; 1 μM,151 pg/mL
same,Human IL-17F concentration,[12]; 10 μM,0 pg/mL
same,Human IL-17F concentration,[12]; 25 μM,0 pg/mL
same,Human IL-17F concentration,[12]; 50 μM,0 pg/mL
same,Human IFN-γ concentration,[13]; 1 μM,204 pg/mL
same,Human IFN-γ concentration,[13]; 10 μM,111 pg/mL
same,Human IFN-γ concentration,[13]; 25 μM,139 pg/mL
same,Human IFN-γ concentration,[13]; 50 μM,191 pg/mL
